Tested on: influenza virus A/Puerto Rico/8/34 (H1N1)
Assay: Antiviral cell protection assay in MDCK cells
Format: cell-based

Question: Which “virus-inhibiting activity, in words” value does the source give for `CC1(C)[C@H]2CC[C@@H](CSSc3ncccc3C(=O)O)[C@@H]1C2` [Compound 2d, 2-((((1S,2R,5S)-6,6-dimethylbicyclo[3.1.1]heptan-2-yl)methyl)disulfanyl)nicotinic acid] here?
Answer: higher than that of Rimantadine

— paper PMC9416111, “Synthesis and Biological Activity of Unsymmetrical Monoterpenylhetaryl Disulfides” (Molecules, 2022)
